Assay results: ChEMBL document CHEMBL4308841, “Synthesis, in vitro antiproliferative activity, and kinase inhibitory effects of pyrazole-containing diarylureas and diarylamides” (Eur J Med Chem, 2018)

Legend:
[1] = test system: NCI-H322M; test: Growth inhibition of human NCI-H322M cells incubated for 48 hrs by sulforhodamine B assay; format: functional, cell-based
[2] = test system: SF-268; test: Growth inhibition of human SF268 cells incubated for 48 hrs by sulforhodamine B assay; format: functional, cell-based; details: SF-268, 48 h
[3] = test system: IGROV-1; test: Growth inhibition of human IGROV1 cells incubated for 48 hrs by sulforhodamine B assay; format: functional, cell-based; details: IGROV-1, 48 h
[4] = test system: OVCAR-3; test: Growth inhibition of human OVCAR3 cells incubated for 48 hrs by sulforhodamine B assay; format: functional, cell-based; details: OVCAR-3, 48 h
[5] = test system: RXF 393; test: Growth inhibition of human RXF393 cells incubated for 48 hrs by sulforhodamine B assay; format: functional, cell-based; details: RXF 393, 48 h
[6] = test system: PC-3; test: Growth inhibition of human PC3 cells incubated for 48 hrs by sulforhodamine B assay; format: functional, cell-based; details: PC-3, 48 h
[7] = test system: SR; test: Growth inhibition of human SR cells assessed as cell growth at 0.01 uM incubated for 48 hrs by sulforhodamine B assay relative to control; format: functional; details: read-out: Activity
[8] = test system: KM12; test: Growth inhibition of human KM12 cells assessed as cell growth at 0.01 uM incubated for 48 hrs by sulforhodamine B assay relative to control; format: functional; details: KM12, 48 h, read-out: Activity
[9] = test system: SNB-19; test: Growth inhibition of human SNB19 cells assessed as cell growth at 0.01 uM incubated for 48 hrs by sulforhodamine B assay relative to control; format: functional; details: SNB-19, 48 h, read-out: Activity
[10] = test system: SN12C; test: Growth inhibition of human SN12C cells assessed as cell growth at 0.01 uM incubated for 48 hrs by sulforhodamine B assay relative to control; format: functional; details: read-out: Activity
[11] = test system: SF-268; test: Growth inhibition of human SF268 cells assessed as cell growth at 0.1 uM incubated for 48 hrs by sulforhodamine B assay relative to control; format: functional; details: SF-268, 48 h, read-out: Activity
[12] = test system: SNB-19; test: Growth inhibition of human SNB19 cells assessed as cell growth at 0.1 uM incubated for 48 hrs by sulforhodamine B assay relative to control; format: functional; details: SNB-19, 48 h, read-out: Activity
[13] = test system: U-251; test: Growth inhibition of human U251 cells assessed as cell growth at 0.1 uM incubated for 48 hrs by sulforhodamine B assay relative to control; format: functional; details: U-251, 48 h, read-out: Activity
[14] = test system: OVCAR-5; test: Growth inhibition of human OVCAR5 cells assessed as cell growth at 0.1 uM incubated for 48 hrs by sulforhodamine B assay relative to control; format: functional; details: OVCAR-5, 48 h, read-out: Activity
[15] = test system: RXF 393; test: Growth inhibition of human RXF393 cells assessed as cell growth at 0.1 uM incubated for 48 hrs by sulforhodamine B assay relative to control; format: functional; details: RXF 393, 48 h, read-out: Activity
[16] = test system: NCI-H23; test: Growth inhibition of human NCI-H23 cells assessed as cell growth at 1 uM incubated for 48 hrs by sulforhodamine B assay relative to control; format: functional; details: NCI-H23, 48 h, read-out: Activity
[17] = test system: SF-268; test: Growth inhibition of human SF268 cells assessed as cell growth at 1 uM incubated for 48 hrs by sulforhodamine B assay relative to control; format: functional; details: SF-268, 48 h, read-out: Activity
[18] = test system: SF-539; test: Growth inhibition of human SF539 cells assessed as cell growth at 1 uM incubated for 48 hrs by sulforhodamine B assay relative to control; format: functional; details: SF-539, 48 h, read-out: Activity
[19] = test system: SNB-75; test: Growth inhibition of human SNB75 cells assessed as cell growth at 1 uM incubated for 48 hrs by sulforhodamine B assay relative to control; format: functional; details: SNB-75, 48 h, read-out: Activity
[20] = test system: Malme-3M; test: Growth inhibition of human MALME-3M cells assessed as cell growth at 1 uM incubated for 48 hrs by sulforhodamine B assay relative to control; format: functional; details: read-out: Activity
[21] = test system: UACC-62; test: Growth inhibition of human UACC62 cells assessed as cell growth at 1 uM incubated for 48 hrs by sulforhodamine B assay relative to control; format: functional; details: UACC-62, 48 h, read-out: Activity
[22] = test system: SN12C; test: Growth inhibition of human SN12C cells assessed as cell growth at 1 uM incubated for 48 hrs by sulforhodamine B assay relative to control; format: functional; details: read-out: Activity
[23] = test system: UO-31; test: Growth inhibition of human UO31 cells assessed as cell growth at 1 uM incubated for 48 hrs by sulforhodamine B assay relative to control; format: functional; details: UO-31, 48 h, read-out: Activity
[24] = test system: MCF7; test: Growth inhibition of human MCF7 cells assessed as cell growth at 1 uM incubated for 48 hrs by sulforhodamine B assay relative to control; format: functional; details: MCF7, 48 h, read-out: Activity
[25] = test system: Hs-578T; test: Growth inhibition of human Hs578T cells assessed as cell growth at 1 uM incubated for 48 hrs by sulforhodamine B assay relative to control; format: functional; details: read-out: Activity
[26] = test system: NCI-H226; test: Growth inhibition of human NCI-H226 cells assessed as cell growth at 100 uM incubated for 48 hrs by sulforhodamine B assay relative to control; format: functional; details: NCI-H226, 48 h, read-out: Activity
[27] = test system: HCC 2998; test: Growth inhibition of human HCC2998 cells assessed as cell growth at 100 uM incubated for 48 hrs by sulforhodamine B assay relative to control; format: functional; details: HCC 2998, 48 h, read-out: Activity
[28] = test system: IGROV-1; test: Growth inhibition of human IGROV1 cells assessed as cell growth at 100 uM incubated for 48 hrs by sulforhodamine B assay relative to control; format: functional; details: IGROV-1, 48 h, read-out: Activity
[29] = test system: OVCAR-3; test: Growth inhibition of human OVCAR3 cells assessed as cell growth at 100 uM incubated for 48 hrs by sulforhodamine B assay relative to control; format: functional; details: OVCAR-3, 48 h, read-out: Activity
[30] = test system: OVCAR-5; test: Growth inhibition of human OVCAR5 cells assessed as cell growth at 100 uM incubated for 48 hrs by sulforhodamine B assay relative to control; format: functional; details: OVCAR-5, 48 h, read-out: Activity
[31] = test system: NCI/ADR-RES; test: Growth inhibition of human NCI/ADR-RES cells assessed as cell growth at 100 uM incubated for 48 hrs by sulforhodamine B assay relative to control; format: functional; details: read-out: Activity
[32] = read-out: pLC50 (the source's name) (converted)
[33] = read-out: LC50 (the source's name)

## COc1cc(Cl)cc(-c2nn(-c3cccc(NC(=O)Nc4cc(C(F)(F)F)cc(C(F)(F)F)c4)c3)cc2-c2ccncc2)c1
[1]
  IC50: 930 nM
[1]; read-out: GI50
  GI50: 933 nM
[1]; read-out: TGI
  TGI: 10900 nM
[1]; read-out: pGI50 (converted)
  GI50: 933 nM
[1]; [32]
  CC50: 46800 nM
[1]; read-out: pTGI (converted)
  TGI: 11000 nM
[2]
  IC50: 620 nM
[2]; read-out: GI50
  GI50: 618 nM
[2]; [33]
  CC50: 30.7 nM
[2]; read-out: TGI
  TGI: 3250 nM
[2]; read-out: pGI50 (converted)
  GI50: 617 nM
[2]; [32]
  CC50: 30900 nM
[2]; read-out: pTGI (converted)
  TGI: 3240 nM
[3]
  IC50: 570 nM
[3]; read-out: GI50
  GI50: 572 nM
[3]; [33]
  CC50: > 100000 nM
[3]; read-out: TGI
  TGI: 12600 nM
[3]; read-out: pGI50 (converted)
  GI50: 575 nM
[3]; [32]
  CC50: > 100000 nM
[3]; read-out: pTGI (converted)
  TGI: 12600 nM
[4]
  IC50: 330 nM
[4]; read-out: GI50
  GI50: 334 nM
[4]; read-out: TGI
  TGI: 1410 nM
[4]; read-out: pGI50 (converted)
  GI50: 331 nM
[4]; [32]
  CC50: 34700 nM
[4]; read-out: pTGI (converted)
  TGI: 1410 nM
[5]
  IC50: 1260 nM
  LC50: 14800 nM
[5]; read-out: TGI
  TGI: 3920 nM
[5]; read-out: pGI50 (converted)
  GI50: 1260 nM
[5]; read-out: pTGI (converted)
  TGI: 3890 nM
[6]
  IC50: 300 nM
[6]; read-out: GI50
  GI50: 297 nM
[6]; [33]
  CC50: > 100000 nM
[6]; read-out: TGI
  TGI: 1630 nM
[6]; read-out: pGI50 (converted)
  GI50: 295 nM
[6]; [32]
  CC50: > 100000 nM
[6]; read-out: pTGI (converted)
  TGI: 1620 nM
[7]
  growth at 0.01 µM: 101%
[8]
  growth at 0.01 µM: 97%
[9]
  growth at 0.01 µM: 89%
[10]
  growth at 0.01 µM: 96%
[11]
  growth at 0.1 µM: 99%
[12]
  growth at 0.1 µM: 87%
[13]
  growth at 0.1 µM: 91%
[14]
  growth at 0.1 µM: 95%
[15]
  growth at 0.1 µM: 101%
[16]
  growth at 1 µM: 8%
[17]
  growth at 1 µM: 37%
[18]
  growth at 1 µM: 59%
[19]
  growth at 1 µM: 48%
[20]
  growth at 1 µM: 36%
[21]
  growth at 1 µM: 18%
[22]
  growth at 1 µM: 17%
[23]
  growth at 1 µM: 15%
[24]
  growth at 1 µM: 21%
[25]
  growth at 1 µM: 50%
[26]
  growth at 100 µM: -47%
[27]
  growth at 100 µM: -70%
[28]
  growth at 100 µM: -42%
[29]
  growth at 100 µM: -81%
[30]
  growth at 100 µM: -80%
[31]
  growth at 100 µM: -12%
